The values below come from patent publication US9539191B2, “Composition for cosmetic use suitable to produce a pigmentation effect on hair” (Giuliani S.P.A., priority 2013, dated 2017).

One assay relates to Tyrosinase. Nature of the assay: Enzymatic assay of tyrosinase (L-tyrosine substrate, absorbance 280 nm). It counts as biochemical. The note with it: compound 5 mM; for Increment in enzymatic activity (%): % enzymatic activity - 100; for Enzymatic activity (%): compared to activity of the enzyme without active compounds (100%). The protocol:
The following compounds with formulae (II), (III), (IV) and (V) were tested as defined above, all in a concentration of 5 mM:
Tyrosinase is a membrane glycoprotein that is expressed in melanosomes, specialised organelles in the endocytic pathway through which the synthesis and assembly of melanin takes place. The synthesis of melanin from tyrosine takes place in pigment-producing cells, namely melanocytes. Melanin produced in melanosomes is transferred to keratinocytes through said processes. Melanin is a polymer that absorbs light within a broad spectrum of wavelengths, and protects keratinocytes from the harmful effects of UV radiations. A peroxidase is involved in the first phase of the reaction, which converts the amino acid into […] alanine or DOPA. The enzyme tyrosinase is involved in the subsequent phase of the biosynthesis pathway that produces dopaquinone. Melanin is synthesised starting from precursors of tyrosine and DOPA, through the enzyme tyrosinase, which presents both […] and oxidase functions. Tyrosine is converted into L-DOPA (dihydroxyphenylalanine) and, then, into dopaquinone, which is red, until the brown melanin polymer is obtained. In a first branch of the pathway dopaquinone is converted into black polymeric melanins, while the reaction with cysteine forms a series of polymers that are similar among them and are called red polymeric melanins.
REAGENT A (potassium phosphate buffer, 50 mM, pH 6.5, 25° C.):
REGENT B (L-tyrosine solution 1 mM):
REAGENT C (tyrosinase solution):
Prepare a solution A+B as described below:
10 mL of Reagent A (potassium phosphate buffer 50 mM)
10 mL of Reagent B (L-tyrosine 1 mM)
Vortex the solution and, if necessary, restore pH 6.5, at 25° C. with HCl 1M or NaOH.
Prepare the solutions with the various concentrations of the compounds to be tested, and preserve at 4° C. until use.
Defrost the tyrosinase solution and keep it on ice in the dark until use.
Mix, at ambient temperature, the solution of potassium phosphate buffer (50 mM, pH 6.5), the above solution A+B and the solutions that include the compounds of the formula (I) to be tested.
Use the following parameters:
Measuring mode: absorbance;
Execution settings: 700 seconds.
First read the enzymatic activity of tyrosinase when there is only L-tyrosine to verify the actual enzyme/mL units and have a basic reference to later assess the effects of the compound examined on enzyme activity:
1 replicates for the blank test (one blank test for each concentration to be tested);
2 replicates for the test (one test for each concentration to be tested).
Prepare the mixtures in separate cuvettes, as described below:
Test the examined compounds with formulae (II), (III), (IV) and (V), as specified below: […]
Calculating the Inhibition or Induction of Enzymatic Activity
[formula] df=dilution factor (30 because 0.1 mL/3 mL tot) 0.001=change of A280 nm/min per unit of L-tyrosine at pH 6.5, 25° C. in a 3 mL reaction mixture; 0.1=volume (mL) of enzyme used Unit/mg solid=unit/mL of enzyme: mg solid/mL of enzyme Unit/mg protein=unit/mL of enzyme: mg protein/mL of enzyme Definition of unit=increment of A280 nm/min equal to 0.001, at 25° C., pH 6.5 in a 3 mL reaction volume containing L-tyrosine.
The percentage of enzymatic activity was calculated for each tested compound, compared to the activity of the enzyme (100% enzymatic activity) failing the presence of active compounds.
The increment percentage of enzymatic activity was later calculated (% enzymatic activity−100).

For assay [1], the system named is Hair follicles (HF) in anagen phase VI with normal pigmentation. The experiment in a line: Hair pigmentation in organ-cultured human hair follicles (quantitative Masson-Fontana melanin stain). It is filed as cell-based. As for the experimental part: The skin of the normal human scalp was taken from a person who was submitted to routine facial lifting surgery, after obtaining their informed consent. All experiments were performed in compliance with the Helsinki principles, with the Ethics Committee approval.
N^1-methyl-spermidine in the invention or the carrier as such (control group) were administered once every time the culture medium was changed, namely every 48 hours. The control compound administered was spermidine at a concentration of 0.5 μM.
The Masson-Fontana stain was administered to ensure histochemical visibility of melanin in frozen sections. Melanin was stained as brown granules and the degree of pigmentation was assessed with the quantitative Masson-Fontana technique. (Ito N., Ito T., Kromminga A., Bettermann A., Takigawa M., Kees F., Straub R. H., and Paus R. (2005): Human hair follicles display a functional equivalent of the hypothalamic-pituitary-adrenal axis and synthesise cortisol. (FASEB J 19, 1332-4)
This method is a highly sensitive and reliable indicator of variations in melanin synthesis, as proven by assays of enzymatic activity, and the expression of standard tyrosinase. […]
The intensity of the stain was analysed in a defined reference region of the hair follicle's pigmentation unit using the software ImageJ (National Institute of Health).

SMILES strings stand for the structures.

For the compound `NCCCNCCCCNC1CCCCC1` [Cyclohexyl-spermidine, N-(3-aminopropyl)-N^1-cyclohexyl-1,4-butandiammine], in the assay on Tyrosinase, the “Increment in enzymatic activity (%)” value is given as 35.31% and the “Enzymatic activity (%)” value stood at 135.31%.
On the same counts, the results for `CCNCCCCNCCCN` [Ethyl-spermidine, N-(3-aminopropyl)-N^1-ethyl-1,4-butandiammine] are 21.50% and 121.50%.
Turning to `CNCCCCNCCCN` [Methyl-spermidine, N-(3-aminopropyl)-N^1-methyl-1,4-butandiammine], the “absolute pigmentation intensity in hair follicles compared to spermidine (Spd)” value in assay [1] (0.5 μM vs spermidine 0.5 μM, FIG. 1) is on record as “higher increase in absolute pigmentation intensity”. The “melanin produced / (absolute) intensity of pigmentation in hair follicles compared to carrier” value in assay [1] (0.5 and 1.5 μM, administered every 48 hours, Masson-Fontana stain, FIGS. 1 and 2) is on record as “increase in melanin produced”. Also, in the assay on Tyrosinase, the “Increment in enzymatic activity (%)” value was 5.16% and the “Enzymatic activity (%)” value was found to be 105.16%.
For the compound `CCCNCCCCNCCCN` [Propyl-spermidine, N-(3-aminopropyl)-N^1-propyl-1,4-butandiammine], in the assay on Tyrosinase, the “Increment in enzymatic activity (%)” value is on record as 31.29% and the “Enzymatic activity (%)” value stood at 131.29%.
